Measured values published in US20130040882A1, “USE OF FIBROBLAST GROWTH FACTOR FRAGMENTS” (NOVARTIS AG, priority 2003, published 2013).
Read-outs that look alike come from different tables or passages of the source.

System: transcript levels in tissues (GH/IGF and glucagon/insulin axes, SSTR signalling)
Format: in vivo, cynomolgus monkeys
[1] = RNA expression fold change, brown fat
[2] = RNA expression fold change, pancreas
[3] = RNA expression fold change, pituitary

## cyclo[4-(NH2—C2H4—NH—CO—O)Pro-Phg-DTrp-Lys-Tyr(4-Bzl)-Phe] [SOM230]
BROWN FAT
  Gene expression (AvgDiff): IGF-1: 389
  Gene expression (AvgDiff): IGFBP 4: 763
  Gene expression (AvgDiff): IRS 2: 146
  Gene expression (AvgDiff): SSTR3: 194
PANCREAS
  Gene expression (AvgDiff): IGF-1: 89
  Gene expression (AvgDiff): SSTR2: 156
PITUITARY
  Gene expression (AvgDiff): GR: 109
  Gene expression (AvgDiff): IGF-2: 70
  Gene expression (AvgDiff): IGFBP, acid labile subunit: 83
  Gene expression (AvgDiff): SSTR3: 57
[1]
  Actin related protein 2/3 complex, subunit 1A (41 kD) ↓: (41 kD) ↓ x2.5
  Adrenergic, β-3-, receptor ↑: receptor ↑ x2.5
  Apotosis-associated tyrosine kinase ↑: tyrosine kinase ↑ x3.5
  CD2 antigen (cytoplasmic tail)-binding protein 2 ↑: protein 2 ↑ x2.5
  CSF 1 (macrophage) ↓: ↓ x2
  CSF 3 receptor (granulocyte) ↑: (granulocyte) ↑ x3
  Ca++ channel, voltage dependent, α 1H subunit ↑: ↑ x3
  Cadherin 5, VE-cadherin (vascular epithelium) ↑: (vascular epithelium) ↑ x3
  Cadherin 13, H-cadherin (heart) ↓: (heart) ↓ x2
  Cadherin F1B1 ↓: Cadherin F1B1 ↓ x4
  Calcium/calmodulin-dependent protein kinase I ↓: kinase I ↓ x3.5
  Capping protein (actin filament), gelsolin-like ↓: ↓ x2.5
  Coagulation factor XIIIAI subunit precursor ↓: ↓ x5
  Cyclin T2 ↑: Cyclin T2 ↑ x2.5
  Dopamine receptor D3 ↑: x2.5
  Dual specificity PP MKP-5 ↑: MKP-5 ↑ x2.5
  EGF receptor pathway substrate 15 ↓: substrate 15 ↓ x2
  Endothelial cell GF 1 (platelet derived) ↓: (platelet derived) ↓ x2
  Endothelial differentiation, sphingolipid G-protein-coupled receptor, 5 ↑: coupled receptor, 5 ↑ x2.5
  FSHR ↑: FSHR ↑ x2.5
  Fms-related tyrosine kinase 1 (VEGF/vascular permeability factor receptor) ↓: receptor) ↓ x4.5
  Follistatin-like 3 glycoprotein ↑: glycoprotein ↑ x3
  G1 to S phase transition ↓: ↓ x1.5
  G protein-activated inwardly rectifying K+ channel ↑: channel ↑ x3.5
  G protein-coupled receptor 1 ↓: receptor 1 ↓ x2.5
  G α inhibiting activity polypeptide 3 interacting protein ↓: protein ↓ x5
  GLUR, metabotropic 1 ↑: ↑ x2
  Guanine nucleotide binding protein (G protein), β polypeptide 3 ↑: ↑ x2.5
  IFN induced transmembrane protein 1 ↑: ↑ x2.5
  IFN γ-inducible protein 30 (IP30) ↓: 30 (IP30) ↓ x3.5
  IGF-1 ↓: IGF-1 ↓ x1.5
  IGF-binding protein 4 ↓: ↓ x2
  IL 3 (CSF, multiple) ↑: ↑ x2
  IL 5R, α ↑: IL 5R, α↑ x2.5
  IL 7R precursor ↑: IL 7R precursor ↑ x2
  IRS (insulin receptor substrate) 2 ↑: substrate) 2 ↑ x2.5
  Neuroblastoma apoptosis-related RNA bindingprotein ↓: bindingprotein ↓ x3
  Neuroblastoma ↓: Neuroblastoma ↓ x2.5
  Oxytocin, prepro-(neurophysin I) ↑: (neurophysin I) ↑ x2.5
  PCNA ↓: PCNA ↓ x2.5
  PI glycan, class F ↓: PI glycan, class F ↓ x2
  PI glycan, class L ↑: PI glycan, class L ↑ x3.5
  PI-3-kinase. regulatory subunit, polypeptide 2 (p85 β) ↓: (p85 β) ↓ x3.5
  PLC β4 ↑: PLC β4 ↑ x2
  PP 2, regulatory subunit B (B56), γ isoform ↓: B (B56), γ isoform ↓ x1.5
  PP 5, catalytic subunit ↑: ↑ x2.5
  Pentaxin-related gene, rapidly induced by IL-1 ↓: ↓ x7.5
  T3 receptor ↑: T3 receptor ↑ x2
  TGF β3 ↑: TGF β3 ↑ x2.5
  TGF β-activated kinase-binding protein 1 ↑: binding protein 1 ↑ x2.5
  THR interactor 10 ↓: THR interactor 10 ↓ x3
  THR interactor 12 ↓: ↓ x1.5
  TNF type 1 receptor associated protein ↓: associated protein ↓ x2
  VGF nerve growth factor inducible ↑: factor inducible ↑ x2
[2]
  BCL2/adenovirus E1B 19 kD-intracting protein 1, isoform BNIP1-a ↓: BNIP1-a ↓ x1.5
  CRHR 1 ↓: CRHR 1 ↓ x2
  Ca++ channel, voltage dependent, α 1F subunit ↓: ↓ x4.5
  Cdki 1C ↑: Cdki 1C ↑ x2
  Chymotrypsin-like ↑: ↑ x3.5
  Cyclin D1 ↑: Cyclin D1 ↑ x2
  Cyclin T2 ↓: Cyclin T2 ↓ x2
  G-CSF protein ↓: G-CSF protein ↓ x2
  GLUR precursor, flip isoform ↑: flip isoform ↑ x3
  Gastrin-releasing peptide receptor ↓: peptide receptor ↓ x5
  IFN regulatory factor 3 ↑: factor 3 ↑ x5
  IGF-1 ↑: IGF-1 ↑ x4.5
  IL 1 receptor antagonist ↓: antagonist↓ x2
  IP-1-phosphatase ↑: ↑ x2.5
  Integrin α2b precursor ↑: precursor ↑ x1.5
  K+ voltage-gated channel, KQT-like subfamily, member3 ↓: ↓ x2.5
  Na+ channel, voltage-gated, type I, β polypeptide ↑: β polypeptide ↑ x2
  Neuroblastoma apoptosis-related RNA bindingprotein ↓: ↓ x3
  PDGFR α ↑: PDGFR α ↑ x2.5
  PDGFR, α polypeptide ↑: α polypeptide ↑ x1.5
  PI-4-kinase, catalytic, α polypeptide ↑: α polypeptide ↑ x1.5
  PL A2, group IVC (cytosolic, calcium-independent) ↑: independent) ↑ x1.5
  Phosphotyrosine independent ligand p62B for the Lck SH2 domain B-cell isoform ↓: isoform ↓ x2
  Prostacyclin synthase ↑: ↑ x2
  SSTR2 ↓: SSTR2 ↓ x1.5
  Smad 3 ↓: Smad 3 ↓ x1.5
  THR binding protein ↓: ↓ x2
  THR interactor 10 ↑: ↑ x2.5
  Thrombospondin 2 ↑: ↑ x3.5
[3]
  1-PI-4-phosphate 5-kinase isoform C ↓: kinase isoform C ↓ x1.5
  ANP (atrial natriuretic peptide precursor B) ↑: peptide precursor B) ↑ x2
  ATP(GTP)-binding protein ↑: protein ↑ x1.5
  ATPase, Ca++ transporting cardiac muscle, slow twitch 2 ↑: ↑ x1.5
  ATPase, H+/K+ exchanging, α polypeptide ↓: ↓ x5
  ATPase, Na+/K+ transporting, α2(+) polypeptide ↑: polypeptide ↑ x2.5
  ATPase, Na+/K+ transporting, β3 polypeptide ↑: polypeptide ↑ x2.5
  Adrenomedullin ↑: Adrenomedullin ↑ x2.5
  Arg PTK-binding protein ↓: protein ↓ x2.5
  BCL2-antagonist of cell death ↑: death ↑ x2
  BCL2-associated athanogene ↑: athanogene ↑ x2
  BCL2/adenovirus E1B 19 kD-interacting protein 3 ↑: ↑ x1.5
  Bax γ ↑: Bax γ ↑ x1.5
  Brain cannabinoid receptor 1 ↑: receptor 1 ↑ x2
  Butyrate response factor 2 (EGF-response factor 2) ↑: ↑ x3
  CC chemokines STCP-1 ↑: ↑ x1.5
  CD36 antigen ↓: CD36 antigen ↓ x2
  Calcium/calmodulin-dependent protein kinase I ↑: kinase I ↑ x2.5
  Catenin (cadherin-associated protein), α1 (102 kD) ↓: α1 (102 kD) ↓ x1.5
  Cdki2C (p18, inhibits CDK4) ↑: CDK4) ↑ x2
  Cdki2D (p19, inhibits CDK4) ↑: CDK4) ↑ x1.5
  Cell division cycle 25B ↑: ↑ x5
  Cholecystokinin receptor ↓: receptor ↓ x4.5
  Cholinergic receptor, muscarinic 3 ↓: muscarinic 3 ↓ x3
  Cholinergic receptor, nicotinic, β polypeptide 4 ↓: β polypeptide 4 ↓ x2
